Measurements as given in patent US9828393B2, “Silylalkyloxyaryl compounds and methods for treating cancer” (THE REGENTS OF THE UNIVERSITY OF COLORADO, a body corporate, priority 2013, dated 2017).

Key:
Format in all cases: cell-based, human
[1] = system: HL-60(TB); test: NCI-60 cell line screen (SRB), HL-60(TB); conditions: Leukemia; HL-60(TB); 48 h drug incubation; read-out: GI50
Procedure: (§1) Drug sensitivity data are provided as GI50s (concentrations required to inhibit growth by 50%). The first row of the text file identifies cell lines, separated by tabs. Subsequent rows contain compound number, compound name, and GI50 for each cell line, each separated by a tab. […] For a typical screening experiment, cells are inoculated into 96 well microtiter plates in 100 μL at plating densities ranging from 5,000 to 40,000 cells/well depending on the doubling time of individual cell lines. After cell inoculation, the microtiter plates are incubated at 37° C., 5% CO2, 95% air and 100% relative humidity for 24 h prior to addition of experimental drugs. After 24 h, two plates of each cell line are fixed in situ with TCA, to represent a measurement of the cell population for each cell line at the time of drug addition (Tz). Experimental drugs are solubilized in dimethyl sulfoxide at 400-fold the desired final maximum test concentration and stored frozen prior to use. At the time of drug addition, an aliquot of frozen concentrate is thawed and diluted to twice the desired final maximum test concentration with complete medium containing 50 μg/ml gentamicin. Additional four, 10-fold or one-half log serial dilutions are made to provide a total of five drug concentrations plus control. Aliquots of 100 μl of these different drug dilutions are added to the appropriate microtiter wells already containing 100 μl of medium, resulting in the required final drug concentrations. Following drug addition, the plates are incubated for an additional 48 h at 37° C., 5% CO2, 95% air, and 100% relative humidity. For adherent cells, the assay is terminated by the addition of cold TCA. Cells are fixed in situ by the gentle addition of 50 μl of cold 50% (w/v) TCA (final concentration, 10% TCA) and incubated for 60 minutes at 4° C. The supernatant is discarded, and the plates are washed five times with tap water and air dried. Sulforhodamine B (SRB) solution (100 μl) at 0.4% (w/v) in 1% acetic acid is added to each well, and plates are incubated for 10 minutes at room temperature. After staining, unbound dye is removed by washing five times with 1% acetic acid and the plates are air dried. Bound stain is subsequently solubilized with 10 mM trizma base, and the absorbance is read on an automated plate reader at a wavelength of 515 nm. For suspension cells, the methodology is the same except that the assay is terminated by fixing settled cells at the bottom of the wells by gently adding 50 μl of 80% TCA (final concentration, 16% TCA). Using the seven absorbance measurements [time zero, (Tz), control growth, (C), and test growth in the presence of drug at the five concentration levels (Ti)], the percentage growth is calculated at each of the drug concentrations levels. […]

[2] = system: NCI-H460; test: NCI-60 cell line screen (SRB), NCI-H460; conditions: Non-Small Cell Lung Cancer; NCI-H460; 48 h drug incubation; read-out: GI50
Procedure: as §1

[3] = system: COLO 205; test: NCI-60 cell line screen (SRB), COLO 205; conditions: Colon Cancer; COLO 205; 48 h drug incubation; read-out: GI50
Procedure: as §1

[4] = system: HCT-116; test: NCI-60 cell line screen (SRB), HCT-116; conditions: Colon Cancer; HCT-116; 48 h drug incubation; read-out: GI50
Procedure: as §1

[5] = system: HT29; test: NCI-60 cell line screen (SRB), HT29; conditions: Colon Cancer; HT29; 48 h drug incubation; read-out: GI50
Procedure: as §1

[6] = system: KM12; test: NCI-60 cell line screen (SRB), KM12; conditions: Colon Cancer; KM12; 48 h drug incubation; read-out: GI50
Procedure: as §1

[7] = system: SW-620; test: NCI-60 cell line screen (SRB), SW-620; conditions: Colon Cancer; SW-620; 48 h drug incubation; read-out: GI50
Procedure: as §1

[8] = system: Colon Cancer cell lines; test: NCI-60 cell line screen, Colon Cancer panel average; conditions: average over Colon Cancer panel; read-out: GI50 Average
Procedure: as §1

[9] = system: SF-268; test: NCI-60 cell line screen (SRB), SF-268; conditions: CNS Cancer; SF-268; 48 h drug incubation; read-out: GI50
Procedure: as §1

[10] = system: SF-539; test: NCI-60 cell line screen (SRB), SF-539; conditions: CNS Cancer; SF-539; 48 h drug incubation; read-out: GI50
Procedure: as §1

[11] = system: LOX IMVI; test: NCI-60 cell line screen (SRB), LOX IMVI; conditions: Melanoma, 48 h drug incubation, read-out: GI50
Procedure: as §1

[12] = system: MDA-MB-435; test: NCI-60 cell line screen (SRB), MDA-MB-435; conditions: Melanoma; MDA-MB-435; 48 h drug incubation; read-out: GI50
Procedure: as §1

[13] = system: SK-MEL-28; test: NCI-60 cell line screen (SRB), SK-MEL-28; conditions: Melanoma; SK-MEL-28; 48 h drug incubation; read-out: GI50
Procedure: as §1

[14] = system: Melanoma cell lines; test: NCI-60 cell line screen, Melanoma panel average; conditions: average over Melanoma panel; read-out: GI50 Average
Procedure: as §1

[15] = system: IGROV1; test: NCI-60 cell line screen (SRB), IGROV1; conditions: Ovarian Cancer; IGROV1; 48 h drug incubation; read-out: GI50
Procedure: as §1

[16] = system: OVCAR-3; test: NCI-60 cell line screen (SRB), OVCAR-3; conditions: Ovarian Cancer; OVCAR-3; 48 h drug incubation; read-out: GI50
Procedure: as §1

[17] = system: OVCAR-8; test: NCI-60 cell line screen (SRB), OVCAR-8; conditions: Ovarian Cancer; OVCAR-8; 48 h drug incubation; read-out: GI50
Procedure: as §1

[18] = system: A-498; test: NCI-60 cell line screen (SRB), A-498; conditions: Renal Cancer; A-498; 48 h drug incubation; read-out: GI50
Procedure: as §1

[19] = system: CAKI-1; test: NCI-60 cell line screen (SRB), CAKI-1; conditions: Renal Cancer; CAKI-1; 48 h drug incubation; read-out: GI50
Procedure: as §1

[20] = system: DU145; test: NCI-60 cell line screen (SRB), DU145; conditions: Prostate Cancer; DU145; 48 h drug incubation; read-out: GI50
Procedure: as §1

[21] = system: MCF-7; test: NCI-60 cell line screen (SRB), MCF-7; conditions: Breast Cancer; MCF-7; 48 h drug incubation; read-out: GI50
Procedure: as §1

[22] = system: T-47D; test: NCI-60 cell line screen (SRB), T-47D; conditions: Breast Cancer; T-47D; 48 h drug incubation; read-out: GI50
Procedure: as §1

[23] = system: MDA-MB-468; test: NCI-60 cell line screen (SRB), MDA-MB-468; conditions: Breast Cancer; MDA-MB-468; 48 h drug incubation; read-out: GI50
Procedure: as §1

Structure (SMILES): CCOP(=O)(OCC)C(NC(=O)[C@H](Cc1ccc(-c2ccccc2)cc1)NC(=O)c1ccc(OCCC[Si](C)(C)C)cc1)P(=O)(OCC)OCC [GH1505, N^α-{4-[3-(trimethylsilyl)propoxy]-benzoyl}-N-[bis(dietoxyphosphoryl)methyl]-(4-phenyl-L-phenylalaninamide)]
- GI50 [1]: 2940 nM
- GI50 [2]: 1970 nM
- GI50 [3]: 1840 nM
- GI50 [4]: 1930 nM
- GI50 [5]: 2020 nM
- GI50 [6]: 2610 nM
- GI50 [7]: 2190 nM
- GI50 [8]: 2120 nM
- GI50 [9]: 2070 nM
- GI50 [10]: 1820 nM
- GI50 [11]: 1850 nM
- GI50 [12]: 1900 nM
- GI50 [13]: 1760 nM
- GI50 [14]: 1920 nM
- GI50 [15]: 3220 nM
- GI50 [16]: 1870 nM
- GI50 [17]: 2960 nM
- GI50 [18]: 3640 nM
- GI50 [19]: 2900 nM
- GI50 [20]: 1930 nM
- GI50 [21]: 1880 nM
- GI50 [22]: 3100 nM
- GI50 [23]: 1720 nM
